Reference: patent EP0388528B1, “Carboximidamide derivatives” (KIRIN BEER KABUSHIKI KAISHA, priority 1988, dated 1990)

Experiments:
male ddY mice = experiment: Effect on hypoxia (survival time in mice); type: in vivo
Experimental: The effect of the compound of the present invention [test compound: N-cyano-N′-(2-nitroxyethyl)-3-pyridinecarboximidamide (compound (13))] on hypoxia was examined in male ddY mice (4 week old). Mice were exposed to a gas mixture of 96% N₂ - 4% O₂ that was streamed in a flow rate of 5 ℓ/min.
The time from the onset of the gas stream till the stop of respiration [survival time (sec)] was measured.
The test compound was orally administered in the dosage form of a 2% suspension in gum arabic 30 minutes before the onset of the gas streaming. The control group was administered a gum arabic suspension only.

[1] = tested on: spontaneous hypertensive rats (SHR); experiment: Hypotensive effect on spontaneous hypertensive rats (intravenously) (Referential Example 1)-3); type: in vivo; details: Rattus norvegicus, iv, anesthetized SHR, dose descending mean blood pressure by 20%; read-out: ED₂₀ (mg/kg, i.v.)
Experimental: Rats were anesthetized with urethane-α-chloralose (1 g/kg - 25 mg/kg; intraperitoneally). Mean blood pressure was measured by a pressure transducer through a cannula inserted into the carotid artery. The compound was cumulatively administered every 30 minutes through the cannula inserted into the jagular vein. The change in blood pressure was expressed as percent of the blood pressure before the administration of the compound. And the ED₂₀ value, which was the dose required for descending blood pressure to an extent of 20%, was calculated from the dose-response curve.

potassium channel = experiment: Potassium channel activating effect (86Rb efflux from rat thoracic aorta); details: compound 10⁻⁴ M for 8 minutes, percent of the efflux before application
Experimental: Male Wistar rats (weighing 250-350 g) were dehematized to death, and thoracic aortae were rapidly isolated. The aorta was opened along the longitudinal axis to prepare a flat sheet. The preparation was loaded with ⁸⁶Rb in the Krebs-Ringer solution which contained ⁸⁶Rb in the concentration of 10 µCi/ml and was gassed with 95% O₂ - 5% CO₂ at 37°C for 2 hours. The preparation was then transferred to a Krebs-Ringer solution not containing ⁸⁶Rb, and washed to remove excess radioactivity for 18 minutes by refreshing the solution every 2 minutes. Finally the preparation was placed into a Krebs-Ringer solution containing each compound (10⁻⁴ M) for 8 minutes.
The amount of ⁸⁶Rb efflux from the preparation in each period was determined with a γ-counter.
The increment in efflux rate during the application of the compound was expressed as percent of the efflux before the application of the compound.

isolated rat aortae = experiment: Vasorelaxing effect on the isolated rat aortae (Referential Example 1)-1); details: inhibition of contraction induced by 40 mM KCl
Experimental: The compounds of the present invention were tested for their physiological activities by measuring the tension of isolated rat aortae isometrically.
Thoracic aortae obtained from male Wistar rats (weighing 250-350 g) were cut into ring segments about 3 mm long. The ring preparation was placed in an organ bath filled with 10 ml of Krebs-Ringer solution that was maintained at 37°C and gassed with 95% O₂ - 5% CO₂.
The preparation in the organ bath was allowed to equilibrate under resting tension of 1 g. After equilibration period, the solution in the organ bath was replaced with an isotonic solution containing 40 mM KCl to contract the preparation.
After the contraction induced by KCl had reached plateau, the concentration-response relationship for the test compound was determined by means of cumulative addition.
The relaxation response of the test compounds was expressed as the percent inhibition of the contraction induced by KCl, and the IC₅₀ value, which is a concentration required for inhibiting the contraction induced by KCl to an extent of 50%, was calculated by the Probit method from the concentration-response curve.

[2] = Acute toxicity (oral administration); details: mouse, in vivo, male ddY mice, read-out: LD₅₀
Experimental: Using male ddY mice (4 week old), acute toxicity on the oral administration of the compound of the present invention was examined [test compound: N-cyano-N′-(2-nitroxyethyl)-3-pyridinecarboximidamide (compound (13))]. As a result, LD₅₀ was about 400 mg/kg.

isolated heart of rats = experiment: Myocardiac injury induced by re-perfusion after ischemia (isolated heart of rats); details: 1×10⁻⁷ mole/min, after 30 minutes re-perfusion, mean ± SD
Experimental: The cardiac muscle protecting effect of the compound of the present invention was tested by using the isolated heart of rats [test compound: N-cyano-N′-(2-nitroxyethyl)-3-pyridinecarboximidamide (compound (13))]. The Langendorff's method was used in the same manner as in the aforementioned Referential Example 1)-6. The isolated heart was perfused with a perfusate for 30 minutes and then with a perfusate containing the test compound for 10 minutes, and perfusion was stopped so that the heart was in the so-called "ischemic state". Pacing was performed during the ischemia. […] Parameters of cardiac function after the onset of re-perfusion was monitored for 30 minutes, and the heart was quickly freezed. The amount of ATP in the heart muscle was extracted with perchloric acid and determined by HPLC. Nicorandil was used as a control.
The recovery rate of the cardiac function (heart rate × left ventricular pressure) after onset of reperfusion was calculated based on the cardiac function prior to the perfusion of the compound (13) and nicorandil as 100%. The amount of ATP in the heart muscle was also determined.

beagles = experiment: Hemodynamic profile in beagles (intravenously); type: in vivo; details: peak percent change from pretreatment
Experimental: Hemodynamic profile of the compound of the present invention was investigated in beagles anesthetized with pentobarbital (30 mg/kg, intravenously) [test compound: N-cyano-N′-(2-nitroxyethyl)-3-pyridinecarboximidamide (compound (13))]. The thorax was opened under artificial respiration. After administering heparin in an amount of 500 units/kg, a Moravitz's cannula was introduced into the coronary sinus via the right atrium. The coronary sinus outflow was returned to the right external jagular vein. The coronary sinus outflow was measured by an electromagnetic flowmeter (MFU-2100, manufactured by Nihon Kohden) connected to the Moravitz's cannula. A cannula was inserted into the aortic arch through the subclavian artery to measure aortic blood pressure. The aortic blood pressure was measured with a pressure transducer (Nihon Kohden, TP-200T). Heart rate was monitored with a heart rate counter with R waves of electrocardiogram. All parameters were recorded on a thermosensitive recorder (WT-685G, manufactured by Nihon Kohden).
The compound was administered through the cannula inserted into the right femoral vein. Nicorandil was used as a control. As for respective measurement items, peak changes were expressed as percent change from the pretreatment values of the compound (13) or nicorandil.

N#CNC(=NCCO[N+](=O)[O-])c1cccnc1 [Compound (13), N-cyano-N'-(2-nitroxyethyl)-3-pyridinecarboximidamide]
Survival Time (sec) mean ± S.E.M. (male ddY mice; 0.3 mg/kg orally 30 minutes before 96% N₂ - 4% O₂): 130.27 ± 9.32 s | Survival Time (sec) mean ± S.E.M. (male ddY mice; 1.0 mg/kg orally 30 minutes before 96% N₂ - 4% O₂): 201.00 ± 13.40 s | Survival Time (sec) mean ± S.E.M. (male ddY mice; 3.0 mg/kg orally 30 minutes before 96% N₂ - 4% O₂): 523.15 ± 48.57 s | ED20 [1]: 0.01 mg/kg | Increment of Efflux (%) (potassium channel): 213.53% | IC50 (isolated rat aortae): 5.1 µM | LD50 [2]: ~400 mg/kg | Amount of ATP in the heart muscle (µmole/g of dry weight) (isolated heart of rats): 11.12±1.12(6) µmole/g of dry weight | Coronary Blood Flow (beagles; i.v. 3.0 µg/kg): 16.4±1.8% | Heart Rate (beagles; i.v. 3.0 µg/kg): 1.3±1.4% | Mean Aortic Blood Pressure (beagles; i.v. 3.0 µg/kg): -15.3±2.5% | Coronary Blood Flow (beagles; i.v. 10.0 µg/kg): 96.0±17.6% | Heart Rate (beagles; i.v. 10.0 µg/kg): -5.9±2.8% | Mean Aortic Blood Pressure (beagles; i.v. 10.0 µg/kg): -38.5±3.1% | Coronary Blood Flow (beagles; i.v. 30.0 µg/kg): 134.1±9.2% | Heart Rate (beagles; i.v. 30.0 µg/kg): -16.2±3.3% | Mean Aortic Blood Pressure (beagles; i.v. 30.0 µg/kg): -50.7±2.1%
